Reference: ChEMBL document CHEMBL5500394, “Structure-Activity Studies of 1,2,4-Oxadiazoles for the Inhibition of the NAD+-Dependent Lysine Deacylase Sirtuin 2” (J Med Chem, 2024)
Calls of active or inactive are those of the source. No cut-off for these calls is given here.

Legend:
[1] = biological target: T1, NAD-dependent protein deacetylase sirtuin-2 (Homo sapiens, UniProt Q8IXJ6); test: Inhibition of human Sirt2 (56 to 356 residues) deacetylation expressed in Escherichia coli BL21 (DE3) using ZMAL as substrate incubated for 4 hrs in presence of NAD+ by fluorescence based microplate reader assay
T1 sequence (Q8IXJ6 whole entry): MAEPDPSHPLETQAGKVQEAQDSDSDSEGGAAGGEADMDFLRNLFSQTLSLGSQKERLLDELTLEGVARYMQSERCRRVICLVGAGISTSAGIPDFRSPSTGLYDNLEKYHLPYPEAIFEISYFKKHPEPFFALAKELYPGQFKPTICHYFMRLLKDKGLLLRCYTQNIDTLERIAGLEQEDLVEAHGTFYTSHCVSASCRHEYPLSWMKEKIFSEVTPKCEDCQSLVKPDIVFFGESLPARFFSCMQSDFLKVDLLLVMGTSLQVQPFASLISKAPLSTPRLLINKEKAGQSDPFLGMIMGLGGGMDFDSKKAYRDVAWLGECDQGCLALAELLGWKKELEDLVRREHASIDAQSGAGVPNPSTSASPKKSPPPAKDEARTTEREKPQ

[2] = biological target: T1, NAD-dependent protein deacetylase sirtuin-2; test: Inhibition of human Sirt2 (56 to 356 residues) demyristoylation expressed in Escherichia coli BL21 (DE3) using ZMML as substrate incubated for 4 hrs in presence of NAD+ by fluorescence based microplate reader assay
[3] = biological target: T2, NAD-dependent protein deacetylase sirtuin-2 (Homo sapiens) (UniProt Q8IXJ6); details: PC-3M-luc, dose 20.0 µM, time 6.0 hrs
T2 sequence (whole entry): T1 sequence (Q8IXJ6 whole entry)

[4] = tested on: PC-3M-luc; details: Homo sapiens, dose 10-20 µM, time 3.0 day
[5] = biological target: T1, NAD-dependent protein deacetylase sirtuin-2; test: Inhibition of recombinant human C-terminal His-tagged Sirt2 (50 to 356 residues) expressed in Escherichia coli using r ETDKmyr as substrate
[6] = biological target: T1, NAD-dependent protein deacetylase sirtuin-2; test: Inhibition of recombinant human C-terminal His-tagged Sirt2 (50 to 356 residues) expressed in Escherichia coli using QPKKac as substrate
[7] = biological target: T2, NAD-dependent protein deacetylase sirtuin-2 (Homo sapiens); test: Induction of human Sirt2 stabilization (56 to 356 residues) expressed in Escherichia coli BL21 (DE3) assessed as change in melting temperature at 25 uM in presence of NAD+ by differential scanning fluorimetry analysis
[8] = tested on: HeLa; test: Cytotoxicity against human HeLa cells at 1 to 25 uM incubated for 72 hrs by MTS assay; format: functional, cell-based; details: dose 1-25 µM
[9] = Inhibition of schistosoma mansoni Sirt2 (21 to 322 residues) deacetylation expressed in Escherichia coli BL21 (DE3) using ZMAL as substrate incubated for 1 hr in presence of NAD+ by fluorescence based microplate reader assay

| SMILES | IC50 [1] [µM] | IC50 [2] [µM] | further results |
| --- | --- | --- | --- |
| Cc1c(F)cccc1CN1CCCC(Cc2nc(-c3ccc(NC(=O)Nc4ccccc4)cc3)no2)C1 (stereo unspecified) | 0.21 | 20.1 |  |
| Cc1cc(C)nc(SCC(=O)Nc2ncc(Cc3cccc(OCc4cn(Cc5ccc(OCCN6CCOCC6)cc5)nn4)c3)s2)n1 |  | 2.4 | inhibition [3]: Active; inhibition [4]: Active |
| CCCCCCCCCCCCNC(=S)NCCCC[C@H](NS(C)(=O)=O)C(=O)N[C@@H](C)C(=O)N[C@@H](CCCNC(=N)N)C(N)=O |  |  | IC50 [5]: 0.17 µM; IC50 [6]: 0.04 µM |
| COc1ccc(C(=O)Nc2ccc(-c3noc(CC4CCCN(Cc5cccc(F)c5C)C4)n3)cc2)cc1 (stereo unspecified) | 0.43 | 12.6 |  |
| Cc1c(F)cccc1CN1CCCC(Cc2nc(-c3ccc(NC(=O)c4ccc(Cl)s4)cc3)no2)C1 (stereo unspecified) | 0.67 |  |  |
| Cc1c(F)cccc1CN1CCCC(Cc2nc(-c3ccc(N)cc3)no2)C1 (stereo unspecified) | 17.8 | 22.2 | Activity [7]: inactive; inhibition [3]: inactive; Activity [8]: inactive; inhibition [4]: inactive |
| CC(=O)Nc1ccc(-c2noc(CC3CCCN(Cc4cccc(F)c4C)C3)n2)cc1 (stereo unspecified) |  | 11 | IC50 [9]: 14 µM |
| COc1ccc(NC(=O)Nc2ccc(-c3noc(CC4CCCN(Cc5cccc(F)c5C)C4)n3)cc2)cc1 (stereo unspecified) | 0.62 | 25 |  |
| Cc1c(F)cccc1CN1CCCC(Cc2nc(-c3ccc(NC(=O)NCc4ccccc4)cc3)no2)C1 (stereo unspecified) | 1.07 | 10.2 |  |
| Cc1c(F)cccc1CN1CCCC(Cc2nc(-c3ccc(NC(=S)Nc4ccccc4)cc3)no2)C1 (stereo unspecified) | 0.9 | 6.2 |  |
| COc1ccc(CC(=O)Nc2ccc(-c3noc(CC4CCCN(Cc5cccc(F)c5C)C4)n3)cc2)cc1 (stereo unspecified) | 1.1 | 27.7 |  |
| COc1cccc(C(=O)Nc2ccc(-c3noc(CC4CCCN(Cc5cccc(F)c5C)C4)n3)cc2)c1 (stereo unspecified) | 0.88 | 22.3 |  |
| Cc1c(F)cccc1CN1CCCC(Cc2nc(-c3ccc(NC(=S)NCc4ccccc4)cc3)no2)C1 (stereo unspecified) | 0.64 | 6.65 | inhibition [3]: Active |
